Assay results taken from ChEMBL document CHEMBL5518189, “Design, synthesis and biological evaluation of 1,2,3-triazole benzothiazole derivatives as tubulin polymerization inhibitors with potent anti-esophageal cancer activities” (Eur J Med Chem, 2024).
Calls of active or inactive are those of the source. The rule behind the calls is not given here.

Columns and labels:
KYSE-30 [1] = assay: Induction of apoptosis in human KYSE-30 cells measured after 48 hrs by annexin V-FITC and PI staining based flow cytometry analysis; format: functional, cell-based; details: dose 20-40 nM
KYSE-30 [2] = assay: Induction of apoptosis in human KYSE-30 cells assessed as effect on Bcl-xl level at 40 to 60 nM by flow cytometry analysis; format: functional, cell-based; details: dose 40-60 nM
ECa-109 [3] = assay: Effect on MST1 level in human EC109 cells at 40 to 60 nM measured after 48 hrs; format: functional, cell-based; details: dose 40-60 nM
KYSE-30 [4] = assay: Induction of apoptosis in human KYSE-30 cells assessed as increase in cleaved PARP level at 40 to 100 nM measured after 48 hrs by Western blot analysis; format: functional, cell-based; details: dose 40-100 nM
ECa-109 cell line [5] = assay: Induction of apoptosis in human EC109 cells assessed as increase in caspase 3 activity at 40 to 100 nM measured after 48 hrs by Western blot analysis; format: functional, cell-based; details: dose 40-100 nM
ECa-109 cell line [6] = assay: Induction of apoptosis in human EC109 cells assessed as increase in total number of apoptotic cells at 40 nM measured after 48 hrs by annexin V-FITC and PI staining based flow cytometry analysis (reference value: 4.93%); format: functional
KYSE-30 [7] = assay: Induction of apoptosis in human KYSE-30 cells assessed as increase in total number of apoptotic cells at 40 nM measured after 48 hrs by annexin V-FITC and PI staining based flow cytometry analysis (reference value: 13.77%); format: functional
ECa-109 cell line [8] = assay: Antiproliferative activity against human EC109 cells assessed as reduction in cell viability by CCK-8 method; format: functional, cell-based; details: time 12-48 hrs, TDE = time-dependent effect
KYSE-30 [9] = assay: Induction of cell cycle arrest in human KYSE-30 cells assessed as accumulation of cells at G2/M phase at 0 to 40 nM measured after 48 hrs by propidium iodide staining based flow cytometry analysis (reference value: 13.87%); format: functional; details: dose 0-40 nM
KYSE-30 [10] = assay: Antiproliferative activity against human KYSE-30 cells assessed as reduction in cell viability measured after 48 hrs by CCK-8 method; format: functional, cell-based; details: dose 10-70 nM
ECa-109 [11] = assay: Effect on MST2 level in human EC109 cells at 40 to 60 nM measured after 48 hrs; format: functional, cell-based; details: dose 40-60 nM
KYSE-30 [12] = assay: Induction of cell cycle arrest in human KYSE-30 cells assessed as downregulation of Wee1 phosphorylation level at 40 to 60 nM measured after 48 hrs by Western blot analysis; format: functional, cell-based; details: dose 40-60 nM
ECa-109 cell line [13] = assay: Induction of apoptosis in human EC109 cells assessed as downregulation of bcl-2 level at 40 to 60 nM by flow cytometry analysis; format: functional, cell-based; details: dose 40-60 nM
KYSE-30 [14] = assay: Antiproliferative activity against human KYSE-30 cells assessed as inhibition of cell growth measured after 48 hrs by CCK8 method; format: functional, cell-based; details: KYSE-30, 48 h
ECa-109 [15] = assay: Downregulation of MST phosphorylation level in human EC109 cells at 40 to 60 nM measured after 48 hrs; format: functional, cell-based; details: dose 40-60 nM
ECa-109 cell line [16] = assay: Induction of apoptosis in human EC109 cells assessed as decrease in pro-caspase 3 level at 40 to 100 nM measured after 48 hrs by Western blot analysis; format: functional, cell-based; details: dose 40-100 nM
KYSE-30 [17] = assay: Induction of apoptosis in human KYSE-30 cells assessed as effect on Mcl-1 level at 40 to 60 nM by flow cytometry analysis; format: functional, cell-based; details: dose 40-60 nM
Cell membrane [18] = assay: Induction of mitochondrial membrane depolarization in human EC109 cells at 40 to 60 nM incubated for 24 hrs by flow cytometry analysis; format: cell membranes; details: dose 40-60 nM
KYSE-30 [19] = assay: Induction of apoptosis in human KYSE-30 cells assessed as effect on bak level at 40 to 60 nM by flow cytometry analysis; format: functional, cell-based; details: dose 40-60 nM
KYSE-30 [20] = assay: Induction of apoptosis in human KYSE-30 cells assessed as downregulation of XIAP level at 40 to 60 nM by flow cytometry analysis; format: functional, cell-based; details: dose 40-60 nM
Cell membrane [21] = assay: Induction of mitochondrial membrane depolarization in human KYSE-30 cells assessed as increase in caspase 9 activity at 40 to 60 nM incubated for 24 hrs by flow cytometry analysis; format: cell membranes; details: dose 40-60 nM
KYSE-30 [22] = assay: Inhibition of colony formation in human KYSE-30 cells at 20 to 40 nM incubated for 7 days by crystal violet staining based analysis; format: functional, cell-based; details: dose 20-40 nM, time 7.0 day
Cell membrane [23] = assay: Induction of mitochondrial membrane depolarization in human KYSE-30 cells at 40 to 60 nM incubated for 24 hrs by flow cytometry analysis; format: cell membranes; details: dose 40-60 nM
Tubulin = assay: Inhibition of tubulin polymerization (unknown origin) measured upto 4500 secs by fluorescence based analysis; format: protein-complex assay, Homo sapiens
Tubulin (Homo sapiens) [24] = target: T1, Tubulin (Homo sapiens) (UniProt P68371+Q9H4B7+P0DPH7+P68366+Q13509+Q71U36+P04350+Q3ZCM7+P07437+P68363+Q9BQE3+Q6PEY2+Q13885+Q9BVA1+Q9BUF5); assay: Inhibition of tubulin polymerization (unknown origin) at 0.3 to 3 uM measured upto 4500 secs by fluorescence based analysis; format: protein-complex assay; details: dose 0.3-3 µM, time <= 4500.0 sec
ECa-109 cell line [25] = assay: Induction of apoptosis in human EC109 cells assessed as increase in cleaved PARP level at 40 to 100 nM measured after 48 hrs by Western blot analysis; format: functional, cell-based; details: dose 40-100 nM
ECa-109 cell line [26] = assay: Induction of cell cycle arrest in human EC109 cells assessed as downregulation of Wee1 phosphorylation level at 40 to 60 nM measured after 48 hrs by Western blot analysis; format: functional, cell-based; details: dose 40-60 nM
KYSE-30 [27] = assay: Antiproliferative activity against human KYSE-30 cells assessed as reduction in cell viability at 70 nM measured after 48 hrs by CCK-8 method relative to control; format: functional
ECa-109 cell line [28] = assay: Induction of cell cycle arrest in human EC109 cells assessed as effect on cyclinB1 level at 40 to 60 nM measured after 48 hrs by Western blot analysis; format: functional, cell-based; details: dose 40-60 nM
Tubulin (Homo sapiens) [29] = target: T1, Tubulin (Homo sapiens); assay: Inhibition of tubulin polymerization in human EC109 cells assessed as appearance of multinucleation at 20 to 40 nM incubated for 6 hrs by immunofluorescence staining based fluorescence microscopic analysis; format: cell-based; details: dose 20-40 nM
ECa-109 cell line [30] = assay: Induction of apoptosis in human EC109 cells measured after 48 hrs by annexin V-FITC and PI staining based flow cytometry analysis; format: functional, cell-based; details: dose 20-40 nM
ECa-109 cell line [31] = assay: Antiproliferative activity against human EC109 cells assessed as reduction in cell viability measured after 48 hrs by CCK-8 method; format: functional, cell-based; details: dose 10-70 nM
ECa-109 [32] = assay: Downregulation of YAP level in human EC109 cells at 60 nM incubated for 48 hrs in presence of MG132; format: functional, cell-based
KYSE-30 [33] = assay: Induction of apoptosis in human KYSE-30 cells assessed as increase in cleaved caspase 3 level at 40 to 100 nM measured after 48 hrs by Western blot analysis; format: functional, cell-based; details: dose 40-100 nM
KYSE-30 [34] = assay: Induction of cell cycle arrest in human KYSE-30 cells assessed as downregulation of CDK1 level at 40 to 60 nM measured after 48 hrs by Western blot analysis; format: functional, cell-based; details: dose 40-60 nM
KYSE-30 [35] = assay: Induction of cell cycle arrest in human KYSE-30 cells assessed as effect on cyclin B1 level at 40 to 60 nM measured after 48 hrs by Western blot analysis; format: functional, cell-based; details: dose 40-60 nM
ECa-109 cell line [36] = assay: Induction of cell cycle arrest in human EC109 cells assessed as upregulation of histone H3 phosphorylation level at 40 to 60 nM measured after 48 hrs by Western blot analysis; format: functional, cell-based; details: dose 40-60 nM

**Q.** What does the source list for `COc1ccc(CN(C(=O)Cn2cc(CSc3nc4ccccc4s3)nn2)c2cc(OC)c(OC)c(OC)c2)cc1O`?
**A.** Activity (KYSE-30 [1]): Dose-Dependent Effect; Activity (KYSE-30 [2]): inactive; Activity (ECa-109 [3]): inactive; Activity (KYSE-30 [4]): Active; Activity (ECa-109 cell line [5]): Active; Activity (ECa-109 cell line [6]): 31.07%; Activity (KYSE-30 [7]): 28.56%; Activity (ECa-109 cell line [8]): Tde; Activity (KYSE-30 [9]): 28.15%; Activity (KYSE-30 [10]): Dose-Dependent Effect; Activity (ECa-109 [11]): inactive; Activity (KYSE-30 [12]): Active; Activity (ECa-109 cell line [13]): Active; IC50 (KYSE-30 [14]): 42 nM; Activity (ECa-109 [15]): Active; Activity (ECa-109 cell line [16]): Active; Activity (KYSE-30 [17]): inactive; Activity (Cell membrane [18]): Active; Activity (KYSE-30 [19]): inactive; Activity (KYSE-30 [20]): Active; Activity (Cell membrane [21]): Active; inhibition (KYSE-30 [22]): Active; Activity (Cell membrane [23]): Active; IC50 (Tubulin): 446 nM; inhibition (Tubulin (Homo sapiens) [24]): Active; Activity (ECa-109 cell line [25]): Active; Activity (ECa-109 cell line [26]): Active; Activity (KYSE-30 [27]): >90%; Activity (ECa-109 cell line [28]): inactive; inhibition (Tubulin (Homo sapiens) [29]): Active; Activity (ECa-109 cell line [30]): Dose-Dependent Effect; Activity (ECa-109 cell line [31]): Dose-Dependent Effect; Activity (ECa-109 [32]): inactive; Activity (KYSE-30 [33]): Active; Activity (KYSE-30 [34]): Active; Activity (KYSE-30 [35]): inactive; Activity (ECa-109 cell line [36]): Active
